Test results from US11534377B2, “Hair growth agent” (KOBAYASHI PHARMACEUTICAL CO., LTD., priority 2016, dated 2022).

Key:
[1] = tested on: hair papilla cell spheroids; experiment: Hair papilla cell proliferation test by three-dimensional culture (Example 6); format: cell-based, C57BL/6N mouse; settings: final concentrations 0.05 wt %, 0.1 wt %, and 1 wt %, cultured for 3 days; FIG. 19
Experimental: In this Example, hair papilla cells prepared in a similar manner to Example 5 were seeded in a 96-well U-bottom microplate for cell culture (from Sumitomo Bakelite Co., Ltd.) at 6,000 cells/well and centrifuged with a plate centrifuge at room temperature and at a rotating speed of 1,000 rpm for 1 minute to yield three-dimensional hair papilla cell spheroids. The spheroids were cultured for 3 days by using each of test solutions A1 to A3 that were hair papilla cell culture media to which D-chiro-inositol dissolved in PBS was added at a final concentration of 0.05 wt %, 0.1 wt %, or 1 wt %; test solutions B1 to B3 that were hair papilla cell culture media to which myo-inositol dissolved in PBS was added at a final concentration of 0.05 wt %, 0.1 wt %, or 1 wt %; and a negative control that was a hair papilla cell culture medium to which PBS alone was added. The spheroids after culturing for 3 days were imaged by using a VHX2000 digital microscope (Keyence Corporation), and the area of the spheroids was calculated by using a digital microscope analysis tool. By calculating a spheroid area increase rate in the test solutions A1 to A3 and B1 to B3, relative to an area increase rate in the negative control as 100%, the proliferation of hair papilla cells in conditions further close to in vivo condition was quantified.

C3H/He mice = experiment: New hair growth promoting activity in telogen-phase mice after hair removal (Example 3); format: in vivo; settings: 5 wt % in 50% ethanol, once/day 100 μl
Description: The hair follicle that produces a hair shaft is the only organ known to repeat growth and regression over the entire life. Such regular growth and regression are divided into the anagen phase, the catagen phase, and the telogen phase of a hair cycle. The body hair of the back of C3H/He mice is bound to be in the telogen phase 45 to 95 days after birth, and thus an extremely long telogen phase-bound period is observed compared with common mice, such as C57BL/6N mice, whose hair cycle of the body hair of the back lasts about 21 days in total for the anagen phase, the catagen phase, and the telogen phase. […] Therefore, by using C3H/He mice at 45 to 90 days after birth, new hair growth promoting activity can be evaluated. […]
The application was performed for two groups (test solution-applied group and negative control group (50% ethanol-applied group)), where each group consisted of five mice. On the basis of new hair growth score criteria (Table 15) according to appearance changes in a portion of the applied region that leaves the telogen phase and enters a regeneration phase, the degree of new hair growth in the applied region was quantified (range of 1 to 10 in which new hair growth scores concerning two items are summed) over time on day 0, 4, 5, 6, 7, 10, 11, 12, 13, 14, 17, 18, 19, 20, and 21 after hair removal. […]

[2] = tested on: crab-eating macaque (Macaca fascicularis); experiment: New hair growth test in monkey (Example 4); format: in vivo; settings: 1 wt % in 50% ethanol, 8 weeks
Description: A crab-eating macaque (Macaca fascicularis) is a monkey (class: Mammalia, order: Primates, family: Cercopithecidae, genus: Macaca) that has many similarities to humans, such as the morphology of the temporomandibular joint, and is frequently employed as a laboratory animal for morphological studies and medication studies due to its easy breeding and rearing. The crab-eating macaque is known for the replacement of the body hair in a six-month cycle in a year. Among aged female monkeys that had babies repeatedly and aged male monkeys of low social status, individuals with observed symptoms of hair thinning or sparse hair emerge with low frequency. […] In this Example, to an aged crab-eating macaque (19 years of age, male) having sparse body hair of the head, a test solution A in which D-chiro-inositol (from Wako Pure Chemical Industries Ltd.) was dissolved in 50% ethanol at a concentration of 1 wt % and a test solution B in which myo-inositol was dissolved in 50% ethanol at a concentration of 1 wt % were applied every day to about 4 cm^2-sparse hair regions (2 cm×2 cm) in both left and right sides across the median line of the head of the macaque. The application (once/day, 150 μl) was performed over 8 weeks, and 50% ethanol was applied as a negative control. At the end of 8 weeks, hair shafts in the applied regions were cut with hair clippers while leaving 2 to 3 mm from pores toward the outside of the body, and the total number of hair protruded from the pores in the applied regions was counted. A new hair growth rate was calculated as an increase rate in the number of hair at the end of 8 weeks, relative to the number of hair protruded from pores in the same regions before the application at the start of the test as 100%.

hair papilla cells = experiment: Hair papilla cell proliferation test by two-dimensional culture (Example 5); format: cell-based, C57BL/6N mouse; settings: final concentration 0.1 wt %, cultured for 3 days; FIG. 18
Description: Hair papilla cells transmit new hair growth signals to hair matrix cells via signaling substances to activate hair matrix cells, thereby controlling processes of new hair growth and hair elongation. Accordingly, the hair shaft growth promoting activity and the like of test substances can be evaluated from a proliferation rate of hair papilla cells. In this Example, the skin of the whisker region was taken from a C57BL/6N mouse and hair papillae were harvested from isolated whisker follicles under a stereo microscope. Six hair papillae were fixed to the bottom surface of a 60 mm-plastic petri dish (from Sumitomo Bakelite Co., Ltd.), and the primary culture was performed at 37° C. in the presence of 5% CO2 by using a hair papilla cell culture medium in which 2% FCS (fetal calf serum), 0.6% ITT (insulin-transferrin-triiodothyronine mixture), 1% BPE (bovine pituitary extract), and 0.6% Cyp (cyproterone solution) were added to a PCGM base medium. Afterwards, the medium was replaced every 2 to 3 days and subculturing was repeated about every two weeks. In this experiment, hair papilla cells at passage 3 or less were used. […] The number of cells after culturing for 3 days was counted by using a hemocytometer, and proliferation rates in test solution A and the test solution B were calculated relative to 100% for a proliferation rate in the negative control as 100%.

In the case of OC1C(O)C(O)C(O)C(O)C1O [D-chiro-inositol], the “Hair papilla cell spheroid area vs negative control” value [1] is reported as “increased significantly”, the “Average timing of new hair growth (new hair growth score reached 1 or more), number of days after hair removal” value (C3H/He mice; FIG. 17, negative control day 9) is reported as 4 days and the “New hair growth score vs negative control group” value (C3H/He mice; day 21 after hair removal, FIG. 16, P<0.05) is reported as “significantly higher”. For the same compound, the “Hair shaft thickness in applied region vs test solution B and negative control” value ([2]; data not shown) was “remarkably thicker”, the “New hair growth rate” value ([2]; once/day 150 μl, sparse hair region of head, number of hair before application = 100%) was 175.9% and the “Hair papilla cell proliferation rate vs negative control” value (hair papilla cells) was “increased significantly”.
